Results as given in patent publication US11903981B2, “Use of Anaerofustis stercorihominis in preventing and/or treating metabolic diseases” (priority 2018, dated 2024).
Marks after values point to notes of the source that are not given here.

Key:
[1] = system: AM25-6; assay: Antibiotic sensitivity of AM25-6 by the drug sensitive paper method; format: cell-based, Anaerofustis stercorihominis; settings: antibiotic susceptibility papers on AM25-6 plates, 37° C., 48 hours
Method: The sensitivity of AM25-6 to 20 common antibiotics was tested by the drug sensitive paper method. 100 μl of AM25-6 bacterial solution cultured to the logarithmic phase was spread plated. Antibiotic susceptibility papers (purchased from Hangzhou Microbial Reagent Co. LTD) were affixed on the medium surface of plates, cultured at 37° C. for 48 hours, after which the size of inhibition zone was measured.

[2] = system: T2D mice model (C57bL/6 mice); assay: T2D animal model (STZ plus high-fat feed), body weight; format: in vivo; settings: gavage
Method: (§1) The T2D animal model is constructed by using C57bL/6 mice (purchased from Guangdong Medical Experimental Animal Center) at 8 weeks old and 20±2 g of body weight. The mice were housed in a specific pathogen free (SPF) environment and adaptively fed for 1 week, followed by grouping and modeling. The T2D animal model is induced by injection of streptozotocin (STZ) along with feeding high-fat feed, and the mice having fasting blood glucose (FBG) reaching to 10 mM/L can be used as a T2D mice model. Fifty mice selected for experiments are randomly divided into 5 groups.
(§2) Bacterial agent group 1: the T2D mice model was administered with the AM25-6 bacterial solution (1×10^8 cfu/ml) by gavage;
(§3) Bacterial agent group 2: the T2D mice model was administered with the DSM 17244 bacterial solution (1×10^8 cfu/ml) by gavage;
(§4) Bacterial agent group 3: the T2D mice model was administered with the DSM 28733 bacterial solution (1×10^8 cfu/ml) by gavage;
(§5) Metformin treatment group: the T2D mice model was treated with the positive drug metformin.
(§6) The experiment was carried out based on the different groups. After the construction of T2D mice model (i.e., FBG>10), the treatment was started and lasted for 2 months. The food intake amount and body weight of mice were recorded daily. Blood of mice was collected from the tail vein every week for detection of fasting blood glucose. The oral glucose tolerance test (OGTT) of mice was measured at week 4 of treatment and at the end of the experiment.

[3] = system: T2D mice model (C57bL/6 mice); assay: T2D animal model, fasting blood glucose; format: in vivo
Method: as §1, §2, §3, §4, §5, §6

[4] = system: T2D mice model (C57bL/6 mice); assay: T2D animal model, oral glucose tolerance test (OGTT); format: in vivo
Method: as §1, §6
The results of oral glucose tolerance test (OGTT) for mice shown in Table 8 indicate that the blood glucose of mice reaches the highest level (i.e., 17.8-23.1 mmol/L) at 30 minutes upon administration of glucose by gavage. […] From the perspective of overall glucose tolerance process, it can be seen that Anaerofustis stercorihominis can effectively ameliorate glucose intolerance in diabetic mice.

Compound	Diameter of inhibition zone [1] [cm]	other results
NCC[C@H](O)C(=O)N[C@@H]1C[C@H](N)[C@@H](O[C@H]2O[C@H](CN)[C@@H](O)[C@H](O)[C@H]2O)[C@H](O)[C@H]1O[C@H]1O[C@H](CO)[C@@H](O)[C@H](N)[C@H]1O [Amikacin]	1.5	
CC1(C)S[C@@H]2[C@H](NC(=O)[C@H](N)c3ccccc3)C(=O)N2[C@H]1C(=O)O [Ampicillin]	>4.0	
CC1(C)S[C@@H]2[C@H](NC(=O)C(C(=O)O)c3ccccc3)C(=O)N2[C@H]1C(=O)O (some centres unmarked) [Carbenicillin]	>4.0	
CC1=C(C(=O)O)N2C(=O)[C@@H](NC(=O)[C@H](N)c3ccccc3)[C@H]2SC1 [Cefalexin]	2.0	
Cc1nnc(SCC2=C(C(=O)O)N3C(=O)[C@@H](NC(=O)Cn4cnnn4)[C@H]3SC2)s1 [Cefazolin]	2.6	
CCN1CCN(C(=O)N[C@@H](C(=O)N[C@@H]2C(=O)N3C(C(=O)O)=C(CSc4nnnn4C)CS[C@H]23)c2ccc(O)cc2)C(=O)C1=O [Cefoperazone]	>4.0	
CC1=C(C(=O)O)N2C(=O)[C@@H](NC(=O)[C@H](N)C3=CCC=CC3)[C@H]2SC1 [Cefradine]	2.0	
CO/N=C(\C(=O)N[C@@H]1C(=O)N2C(C(=O)O)=C(CSc3nc(=O)c(=O)[nH]n3C)CS[C@H]12)c1csc(N)n1 [Ceftriaxone Sodium]	>4.0	
CO/N=C(\C(=O)N[C@@H]1C(=O)N2C(C(=O)O)=C(COC(N)=O)CS[C@H]12)c1ccco1 [Cefuroxime]	3.0	
C[C@H]1c2cccc(O)c2C(=O)C2=C(O)[C@]3(O)C(=O)C(C(N)=O)=C(O)[C@@H](N(C)C)[C@@H]3[C@@H](O)[C@@H]21 [Doxycycline]	2.0	
CC[C@H]1OC(=O)[C@H](C)[C@@H](O[C@H]2C[C@@](C)(OC)[C@@H](O)[C@H](C)O2)[C@H](C)[C@@H](O[C@@H]2O[C@H](C)C[C@H](N(C)C)[C@H]2O)[C@](C)(O)C[C@@H](C)C(=O)[C@H](C)[C@@H](O)[C@]1(C)O [Erythromycin]	2.0	
CC(C)(O/N=C(\C(=O)N[C@@H]1C(=O)N2C(C(=O)[O-])=C(C[n+]3ccccc3)CS[C@H]12)c1csc(N)n1)C(=O)O [Fortum (Ceftazidime), Ceftazidime]	>4.0	
NC[C@H]1O[C@H](O[C@H]2[C@H](O)[C@@H](O[C@H]3O[C@H](CO)[C@@H](O)[C@H](N)[C@H]3O)[C@H](N)C[C@@H]2N)[C@H](O)[C@@H](O)[C@@H]1O [Kanamycin]	1.8	
CN(C)C(=N)N=C(N)N [Metformin, metformin, reference compound]		Body weight ([2]; Week 1): 20.33 g; Body weight ([2]; Week 3): 22.36 g; Body weight ([2]; Week 5): 24.63 g; Body weight ([2]; Week 7): 25.86 g; Body weight ([2]; Week 9, *P<0.05 relative to model group): 26.53* g; Fasting blood glucose, Week 1 ([3]; Week 1): 16.8 mmol/L; Fasting blood glucose, Week 3 ([3]; Week 3): 16.2 mmol/L; Fasting blood glucose, Week 5 ([3]; Week 5): 13.9 mmol/L; Fasting blood glucose, Week 7 ([3]; Week 7): 11.5* mmol/L; Fasting blood glucose, Week 9 ([3]; Week 9): 10.1** mmol/L; Blood glucose in OGTT, 0 minute ([4]; 0 minute after glucose by gavage): 9.3 mmol/L; Blood glucose in OGTT, 30 minutes ([4]; 30 minutes after glucose by gavage): 18.6 mmol/L; Blood glucose in OGTT, 60 minutes ([4]; 60 minutes after glucose by gavage): 16.4 mmol/L; Blood glucose in OGTT, 90 minutes ([4]; 90 minutes after glucose by gavage): 11.7* mmol/L; Blood glucose in OGTT, 120 minutes ([4]; 120 minutes after glucose by gavage): 10.3 mmol/L
CN(C)c1ccc(O)c2c1C[C@H]1C[C@H]3[C@H](N(C)C)C(O)=C(C(N)=O)C(=O)[C@@]3(O)C(O)=C1C2=O [Minocin (Minocycline), Minocycline]	2.6	
Cc1onc(-c2ccccc2)c1C(=O)N[C@@H]1C(=O)N2[C@@H]1SC(C)(C)[C@@H]2C(=O)O [Oxacillin]	1.0	
CCN1CCN(C(=O)N[C@@H](C(=O)N[C@@H]2C(=O)N3[C@@H]2SC(C)(C)[C@@H]3C(=O)O)c2ccccc2)C(=O)C1=O [Piperacillin]	3.0	
CN(C)[C@@H]1C(O)=C(C(N)=O)C(=O)[C@@]2(O)C(O)=C3C(=O)c4c(O)cccc4[C@@](C)(O)[C@H]3C[C@@H]12 [Tetracycline]	0.9	
Gentamicin	2.0	
Neomycin	1.0	
Penicillin	3.0	
